Reference: US10273228B2, “Hepatitis B viral assembly effectors” (Indiana University Research and Technology Corporation, priority 2015, dated 2019)

Tests used:
[1] = test system: AD38 cells; assay: AD38 viability normalized to DMSO control; type: cell-based; settings: 10 μM compound, vs DMSO control; Table 9
Protocol: AD38 cells were then re-suspended with 10 mL of treatment medium and counted. Wells of a collagen coated 96-well NUNC microtiter plate were seeded at 50,000/well in 180 μL of treatment medium, and 20 μL of either 10% DMSO (Control) or a 10× solution of test compound in 10% DMSO in treatment media was added for a final compound concentration 1, 3, or 10 μM (1.0% final [DMSO]) and plates were incubated for 6 days at 37° C.

[2] = test system: HBV viral load, AD38 cells; assay: Activity of test compounds on viral production from AD38 cells (viral load by quantitative PCR of the core sequence in supernatant); type: cell-based, Hepatitis B virus; settings: 10 μM compound, 6 days at 37° C., vs DMSO control wells, Table 9; for activity at 10 µM: Hepatitis B virus, 144 h, read-out: AD38 Viral Load (CpAM/DMSO %) at 10 μM
Outline: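 Cells seeded at 50,000/well on collagen-coated plates and exposed for 6 days at 37 °C to compound at 1, 3 or 10 μM final (1.0% DMSO). Supernatant viral DNA measured by TaqMan qPCR of the core sequence against known standards, compared with DMSO control wells.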

SMILES	AD38 Viability Normalized Result (CPAM/DMSO %) at 10 μM [1] [%]	activity at 10 µM [2] [%]	AD38 Viral Load (CpAM/DMSO %) at 10 μM [2] [%]
Cc1ccc(S(=O)(=O)N2CCN(c3nc(Nc4ccc(C#N)cc4)cc(-c4cncs4)n3)CC2)cc1 [Compound 1379]	110	6	–
N#Cc1ccc(Nc2cc(-c3cncs3)nc(N3CCN(S(=O)(=O)c4ccc(F)cc4)CC3)n2)cc1 [Compound 1380]	108	10	–
Cc1cc(Nc2ccc(F)cc2)nc(N2CCN(S(=O)(=O)c3ccc(C(=O)O)cc3)CC2)n1 [Compound 1381, 4-((4-(4-((4-fluorophenyl)amino)-6-methylpyrimidin-2-yl)piperazin-1-yl)sulfonyl) benzoic acid]	107	46	–
COC(=O)c1ccc(S(=O)(=O)N2CCN(c3nc(C)cc(Nc4ccc(F)cc4)n3)CC2)cc1 [Compound 1382, methyl 4-((4-(4-((4-fluorophenyl)amino)-6-methylpyrimidin-2-yl)piperazin-1-yl)sulfonyl) benzoate]	107	34	–
Cc1cc(Nc2ccc(F)cc2)nc(N2CCN(S(=O)(=O)c3ccc(OCCN4CCOCC4)cc3)CC2)n1 [Compound 1383, N-(4-fluorophenyl)-6-methyl-2-(4-((4-(2-morpholinoethoxy)phenyl)sulfonyl)piperazin-1-yl) pyrimidin-4-amine]	94	14	–
Cc1cc(Nc2ccc(F)cc2)nc(N2CCN(S(=O)(=O)c3ccc(OCC(=O)O)cc3)CC2)n1 [Compound 1384, 2-(4-((4-(4-((4-fluorophenyl)amino)-6-methylpyrimidin-2-yl)piperazin-1-yl)sulfonyl)phenoxy) acetic acid]	91	122	–
CCOC(=O)COc1ccc(S(=O)(=O)N2CCN(c3nc(C)cc(Nc4ccc(F)cc4)n3)CC2)cc1 [Compound 1385, ethyl 2-(4-((4-(4-((4-fluorophenyl)amino)-6-methylpyrimidin-2-yl)piperazin-1-yl)sulfonyl)phenoxy) acetate]	94	105	–
COC(=O)c1ccc(S(=O)(=O)N2CCN(c3nc(Nc4ccc(F)cc4)cc(C(F)(F)F)n3)CC2)cc1 [Compound 1386]	118	23	–
COC(=O)CCCOc1ccc(S(=O)(=O)N2CCN(c3nc(C)cc(Nc4ccc(F)cc4)n3)CC2)cc1 [Compound 1387, methyl 4-(4-((4-(4-((4-fluorophenyl)amino)-6-methylpyrimidin-2-yl)piperazin-1-yl)sulfonyl)phenoxy) butanoate]	107	19	–
O=C(O)c1ccc(S(=O)(=O)N2CCN(c3nc(Nc4ccc(F)cc4)cc(C(F)(F)F)n3)CC2)cc1 [Compound 1388, 4-((4-(4-((4-fluorophenyl)amino)-6-(trifluoromethyl)pyrimidin-2-yl)piperazin-1-yl)sulfonyl) benzoic acid]	106	15	–
CN(C)CCOc1ccc(S(=O)(=O)N2CCN(c3nc(Nc4ccc(F)cc4)cc(C(F)(F)F)n3)CC2)cc1 [Compound 1389, 2-(4-((4-(2-(dimethylamino)ethoxy)phenyl)sulfonyl)piperazin-1-yl)-N-(4-fluorophenyl)-6-(trifluoromethyl) pyrimidin-4-amine]	0	2	–
O=S(=O)(c1ccc(OCCN2CCOCC2)cc1)N1CCN(c2nc(Nc3ccc(F)cc3)cc(C(F)(F)F)n2)CC1 [Compound 1390, N-(4-fluorophenyl)-2-(4-((4-(2-morpholinoethoxy)phenyl)sulfonyl)piperazin-1-yl)-6-(trifluoromethyl) pyrimidin-4-amine]	104	1	–
O=S(=O)(c1ccc(C(F)(F)F)cc1)N1CCN(c2nc(Nc3ccc(F)cc3)cc(C(F)(F)F)n2)CC1 [Compound 1391]	88	16	–
Cc1cc(Nc2ccc(F)cc2)nc(N2CCN(S(=O)(=O)c3ccc(CC(=O)O)cc3)CC2)n1 [Compound 1392, 2-(4-((4-(4-((4-fluorophenyl)amino)-6-methylpyrimidin-2-yl)piperazin-1-yl)sulfonyl)phenyl) acetic acid]	99	69	–
COC(=O)Cc1ccc(S(=O)(=O)N2CCN(c3nc(C)cc(Nc4ccc(F)cc4)n3)CC2)cc1 [Compound 1393, methyl 2-(4-((4-(4-((4-fluorophenyl)amino)-6-methylpyrimidin-2-yl)piperazin-1-yl)sulfonyl)phenyl) acetate]	102	–	79
Cc1cc(Nc2ccc(F)cc2)nc(N2CCN(S(=O)(=O)c3ccc(OCCCC(=O)O)cc3)CC2)n1 [Compound 1394, 4-(4-((4-(4-((4-fluorophenyl)amino)-6-methylpyrimidin-2-yl)piperazin-1-yl)sulfonyl)phenoxy) butanoic acid]	79	32	–
Cc1cc(Nc2ccc(F)cc2)nc(N2CCN(S(=O)(=O)c3ccc(O[C@H](C)C(=O)O)cc3)CC2)n1 [Compound 1395, (R)-2-(4-((4-(4-((4-fluorophenyl)amino)-6-methylpyrimidin-2-yl)piperazin-1-yl)sulfonyl)phenoxy) propanoic acid]	98	42	–
Cc1cc(Nc2ccc(F)cc2)nc(N2CCN(S(=O)(=O)c3ccc(O[C@@H](C)C(=O)O)cc3)CC2)n1 [Compound 1396, (S)-2-(4-((4-(4-((4-fluorophenyl)amino)-6-methylpyrimidin-2-yl)piperazin-1-yl)sulfonyl)phenoxy) propanoic acid]	100	70	–
COC(=O)CCCOc1ccc(S(=O)(=O)N2CCN(c3nc(Nc4ccc(F)cc4)cc(C(F)(F)F)n3)CC2)cc1 [Compound 1397, methyl 4-(4-((4-(4-((4-fluorophenyl)amino)-6-(trifluoromethyl)pyrimidin-2-yl)piperazin-1-yl)sulfonyl)phenoxy) butanoate]	33	–	5
O=C(O)CCCOc1ccc(S(=O)(=O)N2CCN(c3nc(Nc4ccc(F)cc4)cc(C(F)(F)F)n3)CC2)cc1 [Compound 1398, 4-(4-((4-(4-((4-fluorophenyl)amino)-6-(trifluoromethyl)pyrimidin-2-yl)piperazin-1-yl)sulfonyl)phenoxy) butanoic acid]	0	4	–
O=C(O)COc1ccc(S(=O)(=O)N2CCN(c3nc(Nc4ccc(F)cc4)cc(C(F)(F)F)n3)CC2)cc1 [Compound 1399, 2-(4-((4-(4-((4-fluorophenyl)amino)-6-(trifluoromethyl)pyrimidin-2-yl)piperazin-1-yl)sulfonyl)phenoxy) acetic acid]	93	43	–
CCCOc1ccc(S(=O)(=O)N2CCN(c3nc(Nc4ccc(F)cc4)cc(C(F)(F)F)n3)CC2)cc1 [Compound 1400]	93	73	–
CCCCCOc1ccc(S(=O)(=O)N2CCN(c3nc(Nc4ccc(F)cc4)cc(C(F)(F)F)n3)CC2)cc1 [Compound 1401]	97	42	–
COCCOCCOc1ccc(S(=O)(=O)N2CCN(c3nc(Nc4ccc(F)cc4)cc(C(F)(F)F)n3)CC2)cc1 [Compound 1402]	97	12	–
Cc1cc(Nc2ccc(F)cc2)nc(N2CCN(S(=O)(=O)c3ccc(OC(C)(C)C(=O)O)cc3)CC2)n1 [Compound 1403, 2-(4-((4-(4-((4-fluorophenyl)amino)-6-methylpyrimidin-2-yl)piperazin-1-yl)sulfonyl)phenoxy)-2-methylpropanoic acid]	100	83	–
CCOC(=O)C(C)(C)Oc1ccc(S(=O)(=O)N2CCN(c3nc(C)cc(Nc4ccc(F)cc4)n3)CC2)cc1 [Compound 1404, ethyl 2-(4-((4-(4-((4-fluorophenyl)amino)-6-methylpyrimidin-2-yl)piperazin-1-yl)sulfonyl)phenoxy)-2-methylpropanoate]	96	90	–
CC(C)(Oc1ccc(S(=O)(=O)N2CCN(c3nc(Nc4ccc(F)cc4)cc(C(F)(F)F)n3)CC2)cc1)C(=O)O [Compound 1405, 2-(4-((4-(4-((4-fluorophenyl)amino)-6-(trifluoromethyl)pyrimidin-2-yl)piperazin-1-yl)sulfonyl)phenoxy)-2-methylpropanoic acid]	84	28	–
CCOC(=O)C(C)(C)Oc1ccc(S(=O)(=O)N2CCN(c3nc(Nc4ccc(F)cc4)cc(C(F)(F)F)n3)CC2)cc1 [Compound 1406, ethyl 2-(4-((4-(4-((4-fluorophenyl)amino)-6-(trifluoromethyl)pyrimidin-2-yl)piperazin-1-yl)sulfonyl)phenoxy)-2-methylpropanoate]	98	63	–
COCCOc1ccc(S(=O)(=O)N2CCN(c3nc(Nc4ccc(F)cc4)cc(C(F)(F)F)n3)CC2)cc1 [Compound 1407]	91	12	–
